m = 2'-O-methyl; r = 2'-OH (RNA); f = 2'-fluoro
Key:
[1] = in vivo; cited from earlier work
mouse = settings: cited from earlier work
humans = settings: cited from earlier work
[2] = Pharmacokinetics of cotinine-pegaptanib and its anti-cotinine IgG complex in mice (serum VEGF ELISA); assay type: in vivo; settings: ICR mouse, tail vein, 0.135 mg/kg
Description: Male wild-type ICR mouse aged from 4 to 6 weeks were injected through tail vein with cotinine-pegaptanib (0.135 mg/kg) and a cotinine-pegaptanib (0.135 mg/kg)/anti-cotinine IgG (1 mg/kg) complex, diluted in 100 μL of PBS. Each peripheral blood was obtained through the orbital plexus at 0, 0.5, 1, 1.5 and 2 hours after the injection, and the obtained peripheral blood was maintained at a room temperature for 30 minutes then centrifuged at 800 g for 15 minutes to collect supernatant only so that serum was obtained, and analyzed by using ELISA.
Each well of a 96-well ELISA plate was coated with 50 ng of human VEGF dissolved in PBS overnight, and then blocked by PBSB. Then, each serum was diluted in PBSB at a ratio of 1:100, and added to each well with 100 nM of an anti-cotinine IgG The plate was maintained at a room temperature for one hour and washed with PBS-T, and then HRP-bound rabbit anti-human Fc specific IgG (Thermo Fisher Scientific) was added to each well. The resultant mixture was maintained at room temperature for one hour. Subsequently, 3,3′,5,5′-tetramethylbenzidine (TMB) (Thermo Fisher Scientific) was added as a substrate to the resultant mixture, and kept at a room temperature for 15 minutes, followed by measuring the optical density at 650 nm.

Molecule | half-life in serum [1] | LD50 (mouse) [mg/kg] | side effects (humans; 4-day administration at a daily dose of 1.8 g) | physiological activity; physiological and behavioral changes (humans; humans, maximally 160 mg for three days) | degradation after injection into the body [2]
CN1C(=O)CC[C@H]1c1cccnc1 [cotinine] | about 16 hours | 2000 to 4000 | no particular side effects have not been reported | any physiological and behavioral changes have not been reported | 
cotinine-pegaptanib: nucleic acid part of pegaptanib RNA aptamer (SEQ ID NO: 5) conjugated with cotinine via amino C6 linker (CGGAAUCAGUGAAUGCUUAUACAUCCG; sugars from the 5' end fmmrrffmmfmmmfmfffmfmfmfffm, backbone not given here; cotinine conjugated via amino C6 linker, further chemistry not fully specified) |  |  |  |  | degraded immediate after injection into the body

Reference: patent US9867886B2, “Complex in which anti-cotinine antibody is bound to conjugate of cotinine and binding substance, and use thereof” (SNU R&DB FOUNDATION, priority 2011, dated 2018)
